According to US11291683B2, “Bilayer tablets of B vitamins and process for preparing the same” (Access Business Group International LLC, priority 2016, dated 2022):

Assays:
[1] = Dissolution of bilayer time release multi-B vitamin tablets, USP Apparatus 2 (paddle), HPLC; type: physicochemical
Procedure: To investigate the effect of basic yeast on the dissolution profile of folic acid from vitamin B time release tablet, five formulas (Table 2) with different amounts of yeast were tested. The amount of yeast in the modified release layer was kept constant at 30 mg and included at least 15% hydroxypropyl methylcellulose (which acts as a controlled-release polymer).
Dissolution testing was performed using a qualified Sotax dissolution tester operated as USP Apparatus 2 (paddle) at 75 rpm and at 37±0.5° C. The media used for dissolution was different for different B vitamins and was selected to minimize degradation of these vitamins for the length of the study i.e. 8 hours. Each dissolution test was performed with 6 tablets. Sample aliquots were collected at 2, 4, 6, and 8 hour and filtered through 0.45-μm Millex-HV syringe filters, and analyzed by HPLC for dissolution samples.

[2] = cited from earlier work
[3] = USP <711> in vitro dissolution of Nutrilite Vitamin B formulation NF6853; type: physicochemical
Source text: The USP requirement for instant release vitamins is for not less than 75% of label claim to be released within one hour.

SMILES: O=C(O)CCCC[C@@H]1SC[C@@H]2NC(=O)N[C@@H]21 [Biotin, biotin]
- predicted release profile from modified release matrix ([1]; predicted from release of folic acid and thiamine and solubility order, biotin was not analyzed): intermediate release profile
- Solubility in Water (Per 100 ml water) [2]: 0.022 g per 100 ml water

SMILES: Nc1nc2ncc(CNc3ccc(C(=O)N[C@@H](CCC(=O)O)C(=O)O)cc3)nc2c(=O)[nH]1 [Folic Acid, folic acid]
- Solubility in Water (Per 100 ml water) [2]: 0.016 g per 100 ml water

SMILES: NC(=O)c1cccnc1 [Niacinamide (B3), niacinamide]
- Solubility in Water (Per 100 ml water) [2]: 69.1 g per 100 ml water

SMILES: Cc1ncc(CO)c(CO)c1O [Pyridoxine (B6), pyridoxine]
- Solubility in Water (Per 100 ml water) [2]: 30.8 g per 100 ml water

SMILES: Cc1cc2nc3c(=O)[nH]c(=O)nc-3n(C[C@H](O)[C@H](O)[C@H](O)CO)c2cc1C [Riboflavin (B2), riboflavin]
- release from the immediate release layer, % of the label claim ([1]; bi-layer tablet, immediate release layer): around 104%
- release of riboflavin (B2) within an hour ([3]; in vitro dissolution, meets USP requirement of not less than 75% of label claim within one hour): complete release
- % release (input) ([3]; instant release layer of NF6853, 1 hour, cumulative release based on input): 77.12%
- % release (LC) ([3]; instant release layer of NF6853, 1 hour, cumulative release based on label claim): 104%
- Solubility in Water (Per 100 ml water) [2]: 0.010 g per 100 ml water
